The values below come from PubChem BioAssay (NCI).

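Step 1: Grow cells in 96-well plates. Step 2: Expose to compound for 48 hours at 5 concentrations. Step 3: Interpolate endpoints linearly; if unreached, use highest concentration. At the GI50, growth is halved. TGI: total growth inhibition.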

Some test systems named below: A498 renal; HCC-2998 colon; K-562 leukemia; KM12 colon; MDA-MB-231 breast; NCI-H226 lung; NCI-H522 lung; OVCAR-5 ovarian; PC-3 prostate; SK-MEL-2 melanoma.
Holding throughout (assay): growth of human tumour cells (NCI), 48 h

Turning to `C[n+]1cc2c3c(ccc2c2ccc4cc5c(cc4c21)OCO5)OCO3`, the GI50 with A498 renal was 1.54 µM; with HCC-2998 colon it was 1.47 µM; in the experiment with K-562 leukemia, 0.47 µM; with KM12 colon, 0.455 µM; with MDA-MB-231 breast it was 0.63 µM; in the experiment with NCI-H226 lung, 1.54 µM. Moreover, the GI50 in the experiment with NCI-H522 lung was 0.3 µM; in the experiment with OVCAR-5 ovarian, 1.16 µM; in the experiment on PC-3 prostate, 0.668 µM; with SK-MEL-2 melanoma, 1.33 µM. Further, the TGI was found to be 3.12 µM in the experiment with A498 renal; 2.92 µM in the experiment with HCC-2998 colon; 3.06 µM in the experiment on K-562 leukemia; 1.64 µM with KM12 colon; 1.98 µM with MDA-MB-231 breast; 2.98 µM in the experiment on NCI-H226 lung. For the same compound, the TGI with NCI-H522 lung is 1.41 µM; with OVCAR-5 ovarian it was 2.42 µM; in the experiment on PC-3 prostate, 2.08 µM; in the experiment on SK-MEL-2 melanoma, 2.79 µM.

With `COc1cc2cc(Oc3ccc(NC(=O)c4cccc(C(F)(F)F)c4)cc3)c(C)nc2cc1OC`, the GI50 with A498 renal is 1.78 µM; with HCC-2998 colon, 8.03 µM; in the experiment with K-562 leukemia it was 4.25 µM; with KM12 colon, 4.03 µM; in the experiment on MDA-MB-231 breast it was 3.38 µM; in the experiment with NCI-H226 lung it was 7.84 µM. The GI50 in the experiment with NCI-H522 lung was 2.81 µM; in the experiment on OVCAR-5 ovarian, greater than 100 µM; in the experiment with PC-3 prostate, 2.85 µM; with SK-MEL-2 melanoma, 5.11 µM. Besides, the TGI is 65 µM in the experiment with A498 renal; greater than 100 µM in the experiment with HCC-2998 colon; greater than 100 µM with K-562 leukemia; greater than 100 µM with KM12 colon; 46.6 µM in the experiment on MDA-MB-231 breast; greater than 100 µM with NCI-H226 lung. For the same compound, the TGI in the experiment on NCI-H522 lung, in the experiment on OVCAR-5 ovarian, in the experiment with PC-3 prostate and with SK-MEL-2 melanoma was greater than 100 µM in each case.

In the case of `C[C@]12CC[C@@H]3c4ccc(O)c([N+](=O)[O-])c4CC[C@H]3[C@@H]1CC[C@@H]2NS(=O)(=O)c1ccc(C(F)(F)F)cc1`, the GI50 with A498 renal was 1.07 µM; with HCC-2998 colon it was 2.05 µM; in the experiment with K-562 leukemia it was 2.02 µM; in the experiment on KM12 colon it was 1.76 µM; with MDA-MB-231 breast, 1.49 µM; in the experiment with NCI-H226 lung it was 1.62 µM. For the same compound, the GI50 was 1.61 µM with NCI-H522 lung, 1.81 µM with OVCAR-5 ovarian, 1.65 µM in the experiment with PC-3 prostate and 2.1 µM in the experiment with SK-MEL-2 melanoma. Also, the TGI was 3.48 µM in the experiment on A498 renal; 4.02 µM in the experiment on HCC-2998 colon; 5.84 µM with K-562 leukemia; 3.51 µM in the experiment with KM12 colon; 2.93 µM in the experiment with MDA-MB-231 breast; 3.78 µM in the experiment on NCI-H226 lung. In addition, the TGI in the experiment on NCI-H522 lung was 3.48 µM; in the experiment with OVCAR-5 ovarian it was 3.72 µM; in the experiment on PC-3 prostate, 4 µM; in the experiment on SK-MEL-2 melanoma it was 4.18 µM.

As for `Nc1cc2c3c(cccc3c1)NC2=O`, the TGI in the experiment with A498 renal, in the experiment with HCC-2998 colon, in the experiment on K-562 leukemia, in the experiment with KM12 colon, in the experiment on MDA-MB-231 breast and in the experiment with NCI-H226 lung was greater than 100 µM in each case. The TGI in the experiment with NCI-H522 lung is 74 µM; in the experiment on OVCAR-5 ovarian it was greater than 100 µM; in the experiment on PC-3 prostate, greater than 100 µM; in the experiment on SK-MEL-2 melanoma it was greater than 100 µM.

On to `CCc1nc(N)nc(N)c1-c1ccc([N+](=O)[O-])c(NCc2ccccc2)c1`, for which the TGI stood at 32.9 µM in the experiment on A498 renal; 36.7 µM in the experiment on HCC-2998 colon; 20.7 µM with K-562 leukemia; 49.2 µM in the experiment with KM12 colon; 38.1 µM with MDA-MB-231 breast; 46.8 µM with NCI-H226 lung. The TGI was 35.6 µM in the experiment with NCI-H522 lung, greater than 100 µM in the experiment on OVCAR-5 ovarian, 39.9 µM in the experiment with PC-3 prostate and 50.2 µM in the experiment with SK-MEL-2 melanoma.

As for `CS(=O)(=O)c1ccc(Cl)c([N+](=O)[O-])c1`, the GI50 was 38.6 µM in the experiment on A498 renal; 11 µM in the experiment with HCC-2998 colon; 6.78 µM in the experiment on K-562 leukemia; 14.8 µM with KM12 colon; 16.1 µM in the experiment with MDA-MB-231 breast; 15 µM in the experiment with NCI-H226 lung. In addition, the GI50 with NCI-H522 lung was 16.5 µM; with OVCAR-5 ovarian it was 20.1 µM; in the experiment on PC-3 prostate, 19.1 µM; in the experiment on SK-MEL-2 melanoma, 23.2 µM. Besides, the TGI in the experiment with A498 renal was greater than 100 µM; with HCC-2998 colon, 24 µM; in the experiment with K-562 leukemia, 66.5 µM; in the experiment with KM12 colon it was 29.6 µM; in the experiment with MDA-MB-231 breast, 31.1 µM; in the experiment on NCI-H226 lung, 30.3 µM. Besides, the TGI worked out at 33.5 µM with NCI-H522 lung, 36.1 µM in the experiment on OVCAR-5 ovarian, 37.5 µM with PC-3 prostate and 41.7 µM in the experiment with SK-MEL-2 melanoma.

In the case of `CC(CO)[C@H]1OC(=O)C=C2[C@@]13O[C@@H]3[C@H]1OC(=O)[C@@]3(C)[C@H]4O[C@H]4C[C@@]2(C)[C@@H]13` (stereo not given in full), the TGI in the experiment with A498 renal is greater than 29.4 µM; in the experiment on HCC-2998 colon it was 8.58 µM; with K-562 leukemia it was greater than 100 µM; with KM12 colon, 14.9 µM; in the experiment with MDA-MB-231 breast, greater than 29.6 µM; in the experiment on NCI-H226 lung, 5.47 µM. For the same compound, the TGI was 5.38 µM in the experiment with NCI-H522 lung, greater than 87.9 µM in the experiment on OVCAR-5 ovarian, 23.1 µM in the experiment with PC-3 prostate and 11.1 µM in the experiment on SK-MEL-2 melanoma.
